The results in this text go back to the NIST ThermoML archive (doi:10.1021/acs.jced.5b00298).

Numbers after ± are expanded uncertainties.

The data set in a line: mn = molality of the nth substance listed, in mol/kg. As to conditions: 298.15 K, 101 kPa, Liquid, Vibrating tube method.

Regarding `[Na+].[O-][Cl+3]([O-])([O-])[O-]` [sodium perchlorate] + O, the mass density – broadly, mass per unit of volume – is 998.644 ± 0.078 kg/m3 (m1 = 0.0201); 1004.82 ± 0.079 kg/m3 (m1 = 0.1); 1027.27 ± 0.087 kg/m3 (m1 = 0.4001); 1055.68 ± 0.098 kg/m3 (m1 = 0.8002); 1083.49 ± 0.11 kg/m3 (m1 = 1.2); 1111.93 ± 0.12 kg/m3 (m1 = 1.6).

For the compound `O=S(=O)([O-])[O-].[Na+].[Na+]` [sodium sulfate] + O, the mass density is, setting by setting: (m1 = 0.0201) 999.638 ± 0.087 kg/m3; (m1 = 0.1001) 1009.69 ± 0.089 kg/m3; (m1 = 0.4002) 1045.75 ± 0.1 kg/m3; (m1 = 0.8001) 1090.93 ± 0.12 kg/m3; (m1 = 1) 1112.49 ± 0.13 kg/m3; (m1 = 1.2) 1133.41 ± 0.14 kg/m3.

Consider `O=[N+]([O-])[O-].[Na+]` [sodium nitrate] + O, for which the mass density runs as follows: (m1 = 0.02) 998.191 ± 0.075 kg/m3; (m1 = 0.1001) 1002.65 ± 0.075 kg/m3; (m1 = 0.4001) 1019.02 ± 0.082 kg/m3; (m1 = 0.8) 1040.02 ± 0.09 kg/m3; (m1 = 1.201) 1060.25 ± 0.098 kg/m3; (m1 = 1.602) 1079.67 ± 0.11 kg/m3.
